Structures are written as SMILES.

Data set [1] is described as follows: solubility compared to neotame. The note with it: relative to neotame; for solubility compared to neotame: crystallization context. Format: physicochemical.
The conditions of data set [2]: relative to sucrose; cited from earlier work.

As for `COC(=O)[C@H](Cc1ccccc1)N1C(=O)C(CC(=O)O)N(CCC(C)(C)C)C1CC(C)(C)C` (stereo partly drawn) [dialkylated imidazolidinone, α-methyl hydrogen-3-(3,3-dimethylbutyl)-2-L-(2,2-dimethylpropyl)-5-oxo-α-L-(phenylmethyl)-1,4(L)-imidazolidine diacetate], the “solubility compared to neotame” value in data set [1] is “very similar solubilities”.
In the case of `CC(C)(C)CCN[C@@H](CC(=O)O)C(=O)N[C@@H](Cc1ccccc1)C(=O)O` [demethylated α-neotame, N-[N-(3,3-dimethylbutyl)-L-α-aspartyl]-L-phenylalanine], in data set [1] (water), the “solubility in water compared to neotame” value is reported as “more soluble in water”.
For the compound `COC(=O)C(Cc1ccccc1)NC(=O)C(CC(=O)O)NCCC(C)(C)C` [neotame, N-[N-(3,3-dimethylbutyl)-L-α-aspartyl]-L-phenylalanine 1-methyl ester], the “sweetness potency (sweeter than sucrose)” value in data set [2] was “about 8000 X”.
`COC(=O)[C@H](Cc1ccccc1)NC(=O)[C@H](CC(=O)O)N(CCC(C)(C)C)CCC(C)(C)C` [dialkylated aspartame, N,N-di(3,3-dimethylbutyl)-L-aspartyl-L-phenylalanine methyl ester]: the “solubility compared to neotame” value in data set [1] is “very similar solubilities”.
For `COC(=O)C[C@H](NCCC(C)(C)C)C(=O)NC(Cc1ccccc1)C(=O)OC` (stereo partly drawn) [methyl ester of α-neotame, methyl ester of N-[N-(3,3-dimethylbutyl)-L-α-aspartyl]-L-phenylalanine 1-methyl ester], in data set [1], the “solubility compared to neotame” value is “very similar solubilities”.

The record behind these values is patent publication US6784309B2, “Method for the purification of N-[N-(3,3-dimethylbutyl)-L-α-aspartyl]-L-phenylalanine 1-methyl ester” (The Nutrasweet Company, priority 1999, dated 2004).
